Here are results for 13 molecules from ChEMBL document CHEMBL3588788, “Structure-activity relationship of hybrids of Cinchona alkaloids and bile acids with in vitro antiplasmodial and antitrypanosomal activities” (Eur J Med Chem, 2015).

The nature of series [1]: Cytotoxicity against human WI38 cells by MTT assay. The series is classed as cell-based, WI-38. To be noted: Homo sapiens, WI-38; read-out: IC50.
Series [2] deals with Trypanosoma brucei brucei. As to the kind of experiment: Antitrypanosomal activity against Trypanosoma brucei brucei Lister 427 bloodstream forms by microtiter plate based assay. Format: functional, organism-based.
Series [3] concerns Trypanosoma brucei brucei. As to the kind of experiment: Potency index, ratio of IC50 for CND to IC50 for test compound against Trypanosoma brucei brucei Lister 427 bloodstream forms by microtiter plate based assay. The series is classed as functional.
Series [4] concerns Plasmodium falciparum. As to the kind of experiment: Antiplasmodial activity against Plasmodium falciparum 3D7 assessed as reduction in parasite viability by parasite lactate dehydrogenase assay. The series is classed as functional, organism-based.
Series [5] is described as follows: Selectivity index, ratio of IC50 against human WI38 cells to IC50 for Plasmodium falciparum 3D7. To be noted: read-out: Ratio IC50. Format: toxicity, cell-based, WI-38.
Series [6] deals with Plasmodium falciparum. Put plainly: Potency index, ratio of IC50 for CND to IC50 for test compound against Plasmodium falciparum 3D7 by parasite lactate dehydrogenase assay. The series is classed as functional.
Another series in a line: in vitro. Particulars: human, WI38 cells.
The subject of series [7] is Trypanosoma brucei brucei. As to the kind of experiment: Potency index, ratio of IC50 for CN to IC50 for test compound against Trypanosoma brucei brucei Lister 427 bloodstream forms by microtiter plate based assay. The series is classed as functional.
Series [8] deals with Plasmodium falciparum. Put plainly: Potency index, ratio of IC50 for CN to IC50 for test compound against Plasmodium falciparum 3D7 by parasite lactate dehydrogenase assay. The series is classed as functional.

Description for in vitro: Selectivity index, ratio of IC50 against human WI38 cells to IC50 for Trypanosoma brucei brucei Lister 427 bloodstream forms

Consider `C=C[C@H]1CN2CC[C@H]1C[C@H]2[C@H](O)c1cc(CC[C@@H](C)[C@H]2CC[C@H]3[C@@H]4[C@H](O)[C@H](O)[C@@H]5C[C@H](O)CC[C@]5(C)[C@H]4CC[C@]23C)nc2ccccc12`, for which the IC50 came out at 5320 nM in series [1], 620 nM in series [2] and 392 nM in the series with Plasmodium falciparum [4]. Also, the “Ratio IC50” value in series [3] is 100.5; with Plasmodium falciparum [6], 2.5. The selectivity ratio in [5] stood at 14; in the series “in vitro” it was 8.6.
As for `C=C[C@H]1CN2CC[C@H]1C[C@H]2[C@H](O)c1cc(CC[C@@H](C)[C@H]2CC[C@H]3[C@@H]4[C@H](OC(C)=O)C[C@@H]5C[C@H](OC(C)=O)CC[C@]5(C)[C@H]4C[C@H](OC(C)=O)[C@]23C)nc2ccccc12`, the results for the IC50 (in series [1]; in series [2]; in the series on Plasmodium falciparum [4]) were 6700 nM, 1470 nM and 40.6 nM, respectively. Besides, the “Ratio IC50” value came out at 42.4 in series [3] and 23.7 with Plasmodium falciparum [6]. The values for the selectivity ratio (in series [5]; in the series “in vitro”) were 165 and 4.6, respectively.
`C=C[C@H]1CN2CC[C@H]1C[C@H]2[C@H](O)c1cc(CC[C@@H](C)[C@H]2CC[C@H]3[C@@H]4C[C@H](OC(C)=O)[C@@H]5C[C@H](OC(C)=O)CC[C@]5(C)[C@H]4CC[C@]23C)nc2ccccc12`: the IC50 amounted to 4160 nM in series [1], 1180 nM in series [2] and 115 nM with Plasmodium falciparum [4]. For the same molecule, the entries for the “Ratio IC50” value (in [3]; in the series with Plasmodium falciparum [6]) were 52.5 and 8.3, respectively. The selectivity ratio in series [5] came out at 36; in the series “in vitro”, 3.5.
In the case of `C=C[C@H]1CN2CC[C@H]1C[C@H]2[C@H](O)c1cc(CC[C@@H](C)[C@H]2CC[C@H]3[C@@H]4C[C@H](O)[C@@H]5C[C@H](O)CC[C@]5(C)[C@H]4CC[C@]23C)nc2ccccc12`, the IC50 in series [1] turned out to be 3280 nM; in series [2] it was 530 nM; with Plasmodium falciparum [4], 92.1 nM. In addition, the “Ratio IC50” value in series [3] was determined as 116.7; in the series with Plasmodium falciparum [6] it was 10.5. For the same molecule, the results for the selectivity ratio (in series [5]; in the series “in vitro”) were 36 and 6.2, respectively.
On to `C=C[C@H]1CN2CC[C@H]1C[C@@H]2[C@@H](O)c1cc(CC[C@@H](C)[C@H]2CC[C@H]3[C@@H]4[C@H](OC(C)=O)[C@H](OC(C)=O)[C@@H]5C[C@H](OC(C)=O)CC[C@]5(C)[C@H]4CC[C@]23C)nc2ccccc12`, for which the IC50 in [1] is 4170 nM; in [2], 510 nM; in the series on Plasmodium falciparum [4] it was 40.8 nM. Moreover, the “Ratio IC50” value in series [7] came out at 134.6; with Plasmodium falciparum [8] it was 7.2. The selectivity ratio was 102 in series [5] and 8.3 in the series “in vitro”.
In the case of `C=C[C@H]1CN2CC[C@H]1C[C@H]2[C@H](O)c1cc(CC[C@@H](C)[C@H]2CC[C@H]3[C@@H]4CC[C@@H]5C[C@H](OC(C)=O)CC[C@]5(C)[C@H]4C[C@H](OC(C)=O)[C@]23C)nc2ccccc12`, the IC50 is 4060 nM in series [1], 570 nM in series [2] and 77.2 nM in the series with Plasmodium falciparum [4]. The “Ratio IC50” value in series [3] is 108.2; in the series on Plasmodium falciparum [6], 12.5. Moreover, the selectivity ratio is 53 in [5] and 7.1 in “in vitro”.
For the molecule `C=C[C@H]1CN2CC[C@H]1C[C@@H]2[C@@H](O)c1cc(CC[C@@H](C)[C@H]2CC[C@H]3[C@@H]4[C@H](OC(C)=O)C[C@@H]5C[C@H](OC(C)=O)CC[C@]5(C)[C@H]4C[C@H](OC(C)=O)[C@]23C)nc2ccccc12`, the figures for the IC50 (in [1]; in series [2]; in the series with Plasmodium falciparum [4]) were 5100 nM, 550 nM and 52.8 nM, respectively. In addition, the “Ratio IC50” value in [7] is given as 123.6; in the series with Plasmodium falciparum [8], 5.5. Besides, the selectivity ratio in series [5] amounted to 97; in the series “in vitro” it was 9.3.
Regarding `C=C[C@H]1CN2CC[C@H]1C[C@@H]2[C@@H](O)c1cc(CC[C@@H](C)[C@H]2CC[C@H]3[C@@H]4CC[C@@H]5C[C@H](O)CC[C@]5(C)[C@H]4C[C@H](O)[C@]23C)nc2ccccc12`, the IC50 amounted to 2980 nM in [1], 600 nM in [2] and 134 nM with Plasmodium falciparum [4]. Besides, the “Ratio IC50” value in series [7] is on record as 113.1; with Plasmodium falciparum [8], 2.2. Moreover, the selectivity ratio was found to be 22 in series [5] and 5 in the series “in vitro”.
As for `C=C[C@H]1CN2CC[C@H]1C[C@H]2[C@H](O)c1cc(CC[C@@H](C)[C@H]2CC[C@H]3[C@@H]4[C@H](O)C[C@@H]5C[C@H](O)CC[C@]5(C)[C@H]4C[C@H](O)[C@]23C)nc2ccccc12`, the values for the IC50 (in [1]; in [2]; in the series on Plasmodium falciparum [4]) were 8090 nM, 1750 nM and 1800 nM, respectively. Further, the figures for the “Ratio IC50” value (in [3]; with Plasmodium falciparum [6]) were 35.6 and 0.5, respectively. Besides, the selectivity ratio is 4 in [5] and 4.6 in “in vitro”.
`C=C[C@H]1CN2CC[C@H]1C[C@@H]2[C@@H](O)c1cc(CC[C@@H](C)[C@H]2CC[C@H]3[C@@H]4C[C@H](O)[C@@H]5C[C@H](O)CC[C@]5(C)[C@H]4CC[C@]23C)nc2ccccc12`: the values for the IC50 (in series [1]; in series [2]; in the series on Plasmodium falciparum [4]) were 5490 nM, 720 nM and 71.6 nM, respectively. The “Ratio IC50” value was determined as 94.5 in series [7] and 4.1 with Plasmodium falciparum [8]. Moreover, the selectivity ratio is 77 in series [5] and 7.6 in the series “in vitro”.
Consider `C=C[C@H]1CN2CC[C@H]1C[C@H]2[C@H](O)c1cc(CC[C@@H](C)[C@H]2CC[C@H]3[C@@H]4CC[C@@H]5C[C@H](O)CC[C@]5(C)[C@H]4C[C@H](O)[C@]23C)nc2ccccc12`, for which the IC50 in series [1] was found to be 5640 nM; in series [2], 660 nM; with Plasmodium falciparum [4] it was 320 nM. Moreover, the entries for the “Ratio IC50” value (in series [3]; with Plasmodium falciparum [6]) were 94.8 and 3, respectively. Further, the selectivity ratio in series [5] was 18; in “in vitro”, 8.6.
As to `C=C[C@H]1CN2CC[C@H]1C[C@@H]2[C@@H](O)c1cc(CC[C@@H](C)[C@H]2CC[C@H]3[C@@H]4C[C@H](OC(C)=O)[C@@H]5C[C@H](OC(C)=O)CC[C@]5(C)[C@H]4CC[C@]23C)nc2ccccc12`, the figures for the IC50 (in [1]; in series [2]; in the series on Plasmodium falciparum [4]) were 4280 nM, 640 nM and 186 nM, respectively. The results for the “Ratio IC50” value (in [7]; in the series with Plasmodium falciparum [8]) were 105.7 and 1.6, respectively. Moreover, the selectivity ratio in series [5] worked out at 23; in the series “in vitro”, 6.6.
For the molecule `C=C[C@H]1CN2CC[C@H]1C[C@H]2[C@H](O)c1cc(CC[C@@H](C)[C@H]2CC[C@H]3[C@@H]4[C@H](OC(C)=O)[C@H](OC(C)=O)[C@@H]5C[C@H](OC(C)=O)CC[C@]5(C)[C@H]4CC[C@]23C)nc2ccccc12`, the IC50 turned out to be 3750 nM in series [1], 520 nM in series [2] and 36.1 nM with Plasmodium falciparum [4]. The “Ratio IC50” value in [3] was 119.8; in the series with Plasmodium falciparum [6], 26.6. The selectivity ratio in series [5] was determined as 104; in “in vitro”, 7.2.

One may read the IC50 as the point on the concentration scale where inhibition reaches its midpoint.
